Data on two compounds can be found in EPA's ToxValDB 9.5 (doi:10.2903/j.efsa.2009.1350).

One data set deals with Rattus norvegicus. The conditions noted are these: for LD50: acute; for NOAEL: histopathology: nonneoplastic.
Another data set has as its system Typhlodromus pyri. Briefly: LR50; higher = less toxic. Particulars: acute; duration: 7 days; mortality.
The subject of a further data set is Bibionidae. Particulars: chronic/long-term; duration: 28 days.
The next data set has as its system Daphnia magna. Particulars: chronic/long-term; duration: 21 days; reproduction.
A further data set deals with Lolium perenne. Particulars: acute; duration: 21 days; other.
The subject of the next data set is Neomysis kadiakensis. Particulars: chronic/long-term; duration: 28 days; reproduction.
The subject of a further data set is Anas platyrhynchos. The conditions noted are these: for NOEC: reproductive.
A further data set has as its system Canidae. Particulars: subchronic; duration: 90 days; oral; diet; Dog Other; clinical signs.
The next data set relates to Cyprinodon variegatus. Particulars: mortality.
The test system of a further data set is Apis mellifera. Particulars: acute; duration: 48 hours; oral; unspecified; mortality.

Structures are written as SMILES. In brackets after ≈: the same amount, converted by molar mass.

The compound `CCCOc1nc2ccccc2c(=O)n1CCC` [2-Propoxy-3-propyl-4(3H)-quinazolinone] gave an LD50 in the data set with Rattus norvegicus (oral, mortality) of 2050 mg/kg-day.

In the data set with Typhlodromus pyri, `CCCOc1nc2ccc(I)cc2c(=O)n1CCC` [Proquinazid] came in with an LR50 of 47.9 g/ha. Moreover, the LC50 in the data set with Oncorhynchus mykiss (acute, duration: 96 hours, mortality) is 0.349 µg/mL (≈ 0.938 µM); in the data set on Anas platyrhynchos (short-term, oral, feed, mortality) it was 3110 mg/kg-day; with Cyprinodon variegatus (acute, duration: 96 hours), above 0.58 µg/mL; with Tagia sp. (acute, duration: 14 days, mortality), above 1000 mg/kg; in the data set with Colinus virginianus (acute, oral, diet, mortality), 1370 mg/kg-day. In addition, the NOEC in the data set with Oncorhynchus mykiss (chronic/long-term, duration: 90 days, other) came to 0.003 mg/L; in the data set on Bibionidae, 0.465 mg/L; in the data set with Daphnia magna, 0.0018 mg/L; in the data set on Neomysis kadiakensis, 0.0105 mg/L; with Anas platyrhynchos (F), 29.6 mg/kg-day; in the data set with Anas platyrhynchos (M), 31.5 mg/kg-day. Besides, the NOEC in the data set with Cyprinodon variegatus (chronic/long-term, duration: 36 days) is 0.00872 mg/L; with Tagia sp. (chronic/long-term, duration: 56 days) it was above 50.9 mg/kg; in the data set on Colinus virginianus (reproduction developmental), 7.78 mg/kg-day. Further, the LD50 with Rattus norvegicus (oral, mortality) was 4850 mg/kg-day; in the data set on Apis mellifera, above 125 µg/piece; in the data set on Colinus virginianus (acute, oral, mortality), above 2250 mg/kg-day. Further, the NOAEL with Rattus norvegicus (chronic, duration: 2 years) is 1.2 mg/kg-day; in the data set on Rattus norvegicus (subchronic, duration: 90 days, oral, diet), 2 mg/kg-day; in the data set on Canidae it was 19 mg/kg-day. The NOEL is above 600 mg/kg-day with Rattus norvegicus (chronic, mortality) and 35.1 mg/kg-day with Rattus norvegicus (reproduction developmental, reproduction). The LEL in the data set with Lolium perenne is 75 g/ha.
